Measurements as given in the kinase profiling compilation of Christmann-Franck et al. (2016).

Experiments:
Assay in all cases: KINOMEscan competition binding
Settings in all cases: compound 2.0 µM
[1] = molecular target: JAK3 JH1 catalytic (human) (UniProt P52333)
[2] = molecular target: OXSR1 (human) (UniProt O95747)
[3] = molecular target: CIT (human) (UniProt O14578)
[4] = molecular target: EPHB1 (human) (UniProt P54762)
[5] = molecular target: RIPK1 (human) (UniProt Q13546)
[6] = molecular target: RPS6KA4 KD1 (human) (UniProt O75676)
[7] = system: PIK3CA (human), P42336 [Q546K]
[8] = molecular target: ERBB2 (human) (UniProt P04626)
[9] = molecular target: FGFR1 (human) (UniProt P11362)
[10] = molecular target: SBK1 (human) (UniProt Q52WX2)
[11] = molecular target: TGFBR1 (human) (UniProt P36897)
[12] = molecular target: PHKG1 (human) (UniProt Q16816)
[13] = molecular target: WEE1 (human) (UniProt P30291)
[14] = molecular target: MAP3K3 (human) (UniProt Q99759)
[15] = molecular target: NUAK1 (human) (UniProt O60285)
[16] = molecular target: PIP4K2C (human) (UniProt Q8TBX8)
[17] = molecular target: CHEK1 (human) (UniProt O14757)
[18] = molecular target: RIPK2 (human) (UniProt O43353)
[19] = molecular target: TYK2 JH2 pseudokinase (human) (UniProt P29597)
[20] = molecular target: NEK9 (human) (UniProt Q8TD19)
[21] = molecular target: DYRK2 (human) (UniProt Q92630)
[22] = molecular target: ZAP70 (human) (UniProt P43403)
[23] = molecular target: MARK4 (human) (UniProt Q96L34)
[24] = molecular target: MAP3K10 (human) (UniProt Q02779)
[25] = molecular target: NEK7 (human) (UniProt Q8TDX7)
[26] = molecular target: CAMKK2 (human) (UniProt Q96RR4)
[27] = molecular target: IKBKE (human) (UniProt Q14164)
[28] = molecular target: CSNK1D (human) (UniProt P48730)
[29] = molecular target: ULK3 (human) (UniProt Q6PHR2)
[30] = molecular target: CDC42BPG (human) (UniProt Q6DT37)
[31] = molecular target: MAP3K4 (human) (UniProt Q9Y6R4)
[32] = molecular target: SGK3 (human) (UniProt Q96BR1)
[33] = molecular target: ACVRL1 (human) (UniProt P37023)
[34] = molecular target: HIPK3 (human) (UniProt Q9H422)
[35] = molecular target: TRPM6 (human) (UniProt Q9BX84)
[36] = system: EGFR (human), P00533 [T790M/L858R]
[37] = molecular target: KIT (human) (UniProt P10721)
[38] = molecular target: EGFR (human) (UniProt P00533)
[39] = molecular target: CDKL3 (human) (UniProt Q8IVW4)
[40] = molecular target: MAPKAPK5 (human) (UniProt Q8IW41)
[41] = molecular target: PLK1 (human) (UniProt P53350)
[42] = molecular target: MAP4K2 (human) (UniProt Q12851)
[43] = molecular target: STK38 (human) (UniProt Q15208)

Chain of CHEK1 (human) (O14757 whole entry, looked up): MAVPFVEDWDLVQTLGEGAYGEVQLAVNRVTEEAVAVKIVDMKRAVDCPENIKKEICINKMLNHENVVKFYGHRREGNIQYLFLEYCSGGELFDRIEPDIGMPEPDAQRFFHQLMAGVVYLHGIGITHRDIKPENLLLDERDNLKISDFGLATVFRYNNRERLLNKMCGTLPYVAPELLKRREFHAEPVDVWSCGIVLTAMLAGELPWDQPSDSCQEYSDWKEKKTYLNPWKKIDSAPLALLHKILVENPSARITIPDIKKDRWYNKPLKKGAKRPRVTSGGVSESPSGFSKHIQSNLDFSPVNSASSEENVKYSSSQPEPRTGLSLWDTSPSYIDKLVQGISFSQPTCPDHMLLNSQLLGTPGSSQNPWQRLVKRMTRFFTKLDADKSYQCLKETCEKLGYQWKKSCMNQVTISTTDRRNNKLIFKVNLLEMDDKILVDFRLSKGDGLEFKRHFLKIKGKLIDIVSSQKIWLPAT
Chain of TGFBR1 (human) (P36897 whole entry, looked up): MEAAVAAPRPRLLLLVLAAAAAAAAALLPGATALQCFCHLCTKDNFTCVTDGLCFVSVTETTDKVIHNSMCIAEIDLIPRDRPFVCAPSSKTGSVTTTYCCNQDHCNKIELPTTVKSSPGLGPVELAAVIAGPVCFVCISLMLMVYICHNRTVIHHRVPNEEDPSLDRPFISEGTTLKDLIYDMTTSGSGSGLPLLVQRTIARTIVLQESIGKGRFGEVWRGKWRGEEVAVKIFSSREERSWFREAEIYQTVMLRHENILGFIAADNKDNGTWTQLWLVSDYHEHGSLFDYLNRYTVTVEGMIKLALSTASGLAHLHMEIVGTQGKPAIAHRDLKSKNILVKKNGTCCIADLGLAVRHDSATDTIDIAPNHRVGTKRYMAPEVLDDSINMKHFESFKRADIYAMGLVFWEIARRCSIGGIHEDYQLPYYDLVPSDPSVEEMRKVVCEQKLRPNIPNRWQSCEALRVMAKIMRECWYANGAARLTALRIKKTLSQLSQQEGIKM
Chain of MAP3K10 (human) (Q02779 whole entry, looked up): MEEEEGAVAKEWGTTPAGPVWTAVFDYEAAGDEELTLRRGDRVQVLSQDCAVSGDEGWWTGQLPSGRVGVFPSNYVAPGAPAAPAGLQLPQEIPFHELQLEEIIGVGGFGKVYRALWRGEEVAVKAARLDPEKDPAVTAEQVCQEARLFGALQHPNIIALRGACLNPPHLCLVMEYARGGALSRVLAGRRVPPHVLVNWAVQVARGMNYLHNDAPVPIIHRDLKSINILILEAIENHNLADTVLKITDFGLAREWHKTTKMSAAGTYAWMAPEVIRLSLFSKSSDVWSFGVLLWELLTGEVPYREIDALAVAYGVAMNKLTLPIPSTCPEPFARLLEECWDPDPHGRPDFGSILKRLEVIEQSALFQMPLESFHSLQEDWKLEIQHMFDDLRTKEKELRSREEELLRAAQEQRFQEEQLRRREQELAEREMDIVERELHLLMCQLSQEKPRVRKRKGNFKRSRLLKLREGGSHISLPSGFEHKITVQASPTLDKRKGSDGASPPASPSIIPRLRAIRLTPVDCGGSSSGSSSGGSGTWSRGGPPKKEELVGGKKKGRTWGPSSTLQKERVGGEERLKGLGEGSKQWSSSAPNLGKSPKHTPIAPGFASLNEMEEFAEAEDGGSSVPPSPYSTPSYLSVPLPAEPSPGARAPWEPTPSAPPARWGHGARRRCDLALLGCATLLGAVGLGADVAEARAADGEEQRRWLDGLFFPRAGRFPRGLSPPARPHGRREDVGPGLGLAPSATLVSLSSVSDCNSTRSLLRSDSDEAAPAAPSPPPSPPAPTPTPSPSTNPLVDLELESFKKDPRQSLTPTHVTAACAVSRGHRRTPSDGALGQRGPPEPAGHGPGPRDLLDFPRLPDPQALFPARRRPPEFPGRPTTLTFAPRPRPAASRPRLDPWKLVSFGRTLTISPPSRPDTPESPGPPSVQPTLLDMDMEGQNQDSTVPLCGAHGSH
Chain of MARK4 (human) (Q96L34 whole entry, looked up): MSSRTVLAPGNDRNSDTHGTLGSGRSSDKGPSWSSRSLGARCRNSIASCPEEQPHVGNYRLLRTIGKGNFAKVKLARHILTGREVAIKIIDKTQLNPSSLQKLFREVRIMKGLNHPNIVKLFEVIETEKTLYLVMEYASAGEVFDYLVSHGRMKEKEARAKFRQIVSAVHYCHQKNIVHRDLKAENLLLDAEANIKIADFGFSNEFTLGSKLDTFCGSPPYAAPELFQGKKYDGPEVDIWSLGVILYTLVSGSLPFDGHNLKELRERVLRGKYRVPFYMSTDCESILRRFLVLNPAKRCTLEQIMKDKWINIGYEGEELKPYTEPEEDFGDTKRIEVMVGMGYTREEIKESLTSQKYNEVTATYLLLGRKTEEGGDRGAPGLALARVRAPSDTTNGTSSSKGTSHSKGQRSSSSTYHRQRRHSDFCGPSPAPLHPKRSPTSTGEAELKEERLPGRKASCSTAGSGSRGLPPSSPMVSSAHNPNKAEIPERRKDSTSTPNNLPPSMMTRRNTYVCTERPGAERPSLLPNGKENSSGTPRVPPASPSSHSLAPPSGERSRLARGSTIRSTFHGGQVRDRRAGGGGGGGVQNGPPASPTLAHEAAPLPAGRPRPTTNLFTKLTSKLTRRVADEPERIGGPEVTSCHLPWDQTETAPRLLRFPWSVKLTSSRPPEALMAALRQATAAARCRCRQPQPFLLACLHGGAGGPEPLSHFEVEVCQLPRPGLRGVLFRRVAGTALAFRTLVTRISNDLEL
Chain of TRPM6 (human) (Q9BX84 whole entry, looked up): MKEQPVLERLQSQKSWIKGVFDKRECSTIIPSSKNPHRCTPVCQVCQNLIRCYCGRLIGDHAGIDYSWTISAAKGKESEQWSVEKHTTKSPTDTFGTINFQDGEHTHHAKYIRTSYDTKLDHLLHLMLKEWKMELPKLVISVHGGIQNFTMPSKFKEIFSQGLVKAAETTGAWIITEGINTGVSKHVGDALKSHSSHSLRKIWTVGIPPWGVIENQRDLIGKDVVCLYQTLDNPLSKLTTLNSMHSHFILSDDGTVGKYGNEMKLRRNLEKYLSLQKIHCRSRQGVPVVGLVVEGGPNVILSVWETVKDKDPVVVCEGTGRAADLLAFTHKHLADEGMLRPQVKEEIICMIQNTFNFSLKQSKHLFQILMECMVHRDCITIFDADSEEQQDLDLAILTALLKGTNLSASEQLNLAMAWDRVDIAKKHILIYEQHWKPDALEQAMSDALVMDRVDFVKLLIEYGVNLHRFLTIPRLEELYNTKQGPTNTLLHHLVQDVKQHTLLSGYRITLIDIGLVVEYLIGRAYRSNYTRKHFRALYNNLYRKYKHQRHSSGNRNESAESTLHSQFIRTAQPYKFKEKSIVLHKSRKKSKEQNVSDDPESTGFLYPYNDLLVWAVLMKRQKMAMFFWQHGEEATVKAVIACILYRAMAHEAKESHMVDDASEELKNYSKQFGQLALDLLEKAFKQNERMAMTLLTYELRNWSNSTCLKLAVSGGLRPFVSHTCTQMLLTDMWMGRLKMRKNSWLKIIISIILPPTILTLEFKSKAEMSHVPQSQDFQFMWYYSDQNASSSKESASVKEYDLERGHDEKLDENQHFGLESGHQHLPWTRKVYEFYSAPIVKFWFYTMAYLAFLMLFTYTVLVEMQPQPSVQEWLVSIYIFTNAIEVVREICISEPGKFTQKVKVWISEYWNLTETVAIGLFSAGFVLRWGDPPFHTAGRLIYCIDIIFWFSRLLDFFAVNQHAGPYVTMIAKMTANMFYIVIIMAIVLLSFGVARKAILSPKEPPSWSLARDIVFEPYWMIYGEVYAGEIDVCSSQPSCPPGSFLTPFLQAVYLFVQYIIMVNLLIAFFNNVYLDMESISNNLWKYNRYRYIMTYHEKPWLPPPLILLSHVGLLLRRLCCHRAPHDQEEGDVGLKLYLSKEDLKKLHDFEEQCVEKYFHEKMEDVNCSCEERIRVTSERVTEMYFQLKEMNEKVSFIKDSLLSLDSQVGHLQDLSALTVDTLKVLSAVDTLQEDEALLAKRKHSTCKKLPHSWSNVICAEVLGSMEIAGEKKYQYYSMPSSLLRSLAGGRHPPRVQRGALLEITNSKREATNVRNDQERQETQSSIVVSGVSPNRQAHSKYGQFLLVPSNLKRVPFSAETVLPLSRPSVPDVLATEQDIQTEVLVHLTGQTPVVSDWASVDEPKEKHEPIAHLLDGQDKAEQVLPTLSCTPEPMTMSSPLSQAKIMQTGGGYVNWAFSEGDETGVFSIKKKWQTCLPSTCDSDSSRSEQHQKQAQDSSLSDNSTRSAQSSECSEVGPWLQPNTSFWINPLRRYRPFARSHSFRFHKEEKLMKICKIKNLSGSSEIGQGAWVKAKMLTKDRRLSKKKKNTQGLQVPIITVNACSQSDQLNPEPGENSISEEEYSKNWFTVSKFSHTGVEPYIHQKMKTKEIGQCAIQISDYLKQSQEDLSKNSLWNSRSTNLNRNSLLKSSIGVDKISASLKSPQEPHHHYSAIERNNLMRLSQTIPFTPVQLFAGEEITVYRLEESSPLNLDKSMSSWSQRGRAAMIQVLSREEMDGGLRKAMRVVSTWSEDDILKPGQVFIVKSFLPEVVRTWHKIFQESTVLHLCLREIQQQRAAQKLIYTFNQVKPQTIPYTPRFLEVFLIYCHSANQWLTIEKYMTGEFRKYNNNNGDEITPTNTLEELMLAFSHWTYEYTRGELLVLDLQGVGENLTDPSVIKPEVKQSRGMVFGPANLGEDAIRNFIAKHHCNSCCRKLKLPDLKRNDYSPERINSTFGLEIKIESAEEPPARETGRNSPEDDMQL
Chain of PHKG1 (human) (Q16816 whole entry, looked up): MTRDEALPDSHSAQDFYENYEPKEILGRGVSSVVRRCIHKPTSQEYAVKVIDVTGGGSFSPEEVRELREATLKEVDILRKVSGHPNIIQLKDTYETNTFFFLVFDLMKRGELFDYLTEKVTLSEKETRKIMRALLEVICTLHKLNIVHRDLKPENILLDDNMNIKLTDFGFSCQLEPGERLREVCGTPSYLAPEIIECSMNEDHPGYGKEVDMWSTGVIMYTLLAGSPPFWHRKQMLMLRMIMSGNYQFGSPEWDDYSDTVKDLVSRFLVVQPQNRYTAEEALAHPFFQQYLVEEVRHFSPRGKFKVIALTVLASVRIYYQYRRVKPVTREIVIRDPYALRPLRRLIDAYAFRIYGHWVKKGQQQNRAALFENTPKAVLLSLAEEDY

N#Cc1ccc2ncnc(NCCc3ccc4ccccc4c3)c2c1
kinase still bound, per cent of control [1]: 100% | kinase still bound, per cent of control [2]: 100% | kinase still bound, per cent of control [3]: 91% | kinase still bound, per cent of control [4]: 87% | kinase still bound, per cent of control [5]: 85% | kinase still bound, per cent of control [6]: 83% | kinase still bound, per cent of control [7]: 85% | kinase still bound, per cent of control [8]: 94% | kinase still bound, per cent of control [9]: 92% | kinase still bound, per cent of control [10]: 100% | kinase still bound, per cent of control [11]: 100% | kinase still bound, per cent of control [12]: 100% | kinase still bound, per cent of control [13]: 88% | kinase still bound, per cent of control [14]: 100% | kinase still bound, per cent of control [15]: 75% | kinase still bound, per cent of control [16]: 91% | kinase still bound, per cent of control [17]: 97% | kinase still bound, per cent of control [18]: 100% | kinase still bound, per cent of control [19]: 92% | kinase still bound, per cent of control [20]: 100% | kinase still bound, per cent of control [21]: 85% | kinase still bound, per cent of control [22]: 94% | kinase still bound, per cent of control [23]: 85% | kinase still bound, per cent of control [24]: 100% | kinase still bound, per cent of control [25]: 100% | kinase still bound, per cent of control [26]: 100% | kinase still bound, per cent of control [27]: 100% | kinase still bound, per cent of control [28]: 99% | kinase still bound, per cent of control [29]: 100% | kinase still bound, per cent of control [30]: 92% | kinase still bound, per cent of control [31]: 86% | kinase still bound, per cent of control [32]: 100% | kinase still bound, per cent of control [33]: 100% | kinase still bound, per cent of control [34]: 78% | kinase still bound, per cent of control [35]: 100% | kinase still bound, per cent of control [36]: 100% | kinase still bound, per cent of control [37]: 97% | kinase still bound, per cent of control [38]: 75% | kinase still bound, per cent of control [39]: 100% | kinase still bound, per cent of control [40]: 79% | kinase still bound, per cent of control [41]: 88% | kinase still bound, per cent of control [42]: 60% | kinase still bound, per cent of control [43]: 100%
